In patent US20260091020A1, “TREATMENT OF ACUTE CANNABINOID OVERDOSE” (Anebulo Pharmaceuticals, Inc., priority 2022, published 2026):
Where two headings read alike, the source gives them in different places.

Tests used:
[1] = Plasma PK of ANEB-001 and THC, 50 and 100 mg oral Compound 1 with THC (Example 2); format: in vivo, human; details: for concentration at 0 h / concentration at 0.33 h / concentration at 0.67 h / concentration at 1 h / concentration at 2 h / concentration at 3 h / concentration at 4 h / concentration at 5 h / concentration at 24 h / AUC(0-t) / Cmax / Tmax: human, in vivo; for Tmax: read-out: THC plasma tmax, Median
Method: A phase 2 clinical study was conducted using the design outlined in FIG. 1. Briefly, 60 adult healthy volunteers ages 18-45 (20 per arm) were selected for a randomized, double blind placebo-controlled study. Volunteers were divided into three groups: (1) THC (Δ9-Tetrahydrocannabinol, 10.5 mg)+placebo; (2) THC (10.5 mg)+Compound 1 (50 mg); and (3) THC (10.5 mg)+Compound 1 (100 mg). […] A followup evaluation was also performed after 14 days. Primary endpoints included inhibition of central nervous system effects of THC using (a) visual analog scale “feeling high”; (b) visual analog scale “alertness”; (c) body sway; (d) heart rate. Secondary endpoints included additional efficacy metrics, safety/tolerability, PK, and PK/PD correlations.
Following the general methods of Example 1, pharmacodynamic properties were measured for Compound 1 (FIGS. 13A-13F).

[2] = test system: central nervous system effects of THC; assay: Phase 2 randomized, double-blind, placebo-controlled THC challenge study, PD endpoints (10.5 mg THC + 50 or 100 mg Compound 1); format: in vivo, human; details: 10.5 mg THC alone (THC/placebo); score of at least 20/100 on VAS feeling high scale
[3] = 10 mg THC + 50 mg ANEB-001, read-out: THC Concentration in Plasma, Mean
[4] = 10 mg THC + 50 mg ANEB-001, read-out: THC Concentration in Plasma, Median
[5] = 10 mg THC + 100 mg ANEB-001, read-out: THC Concentration in Plasma, Mean
[6] = 10 mg THC + 100 mg ANEB-001, read-out: THC Concentration in Plasma, Median
[7] = 10 mg THC + Placebo, read-out: THC Concentration in Plasma, Mean
[8] = 10 mg THC + Placebo, read-out: THC Concentration in Plasma, Median

With `CCCCCc1cc(O)c2c(c1)OC(C)(C)[C@@H]1CCC(C)=C[C@@H]21` [THC, Δ9-tetrahydrocannabinol] the “THC plasma tlag, Median” value ([1]; 10 mg THC + 50 mg ANEB-001) was 0.00 h, the “THC plasma AUClast, Mean” value ([1]; 10 mg THC + 100 mg ANEB-001) was 6.128 ng·h/mL and the “THC plasma tlag, Median” value ([1]; 10 mg THC + 100 mg ANEB-001) was 0.00 h. The “THC plasma AUClast, Mean” value ([1]; 10 mg THC + Placebo) was 5.722 ng·h/mL, the “THC plasma Cmax, Median” value ([1]; 10 mg THC + Placebo) was 2.81 ng/mL and the “THC plasma tlag, Median” value ([1]; 10 mg THC + Placebo) was 0.00 h. It also gave a concentration at 0 h [1, 3] of 0 ng/mL, a concentration at 0 h [1, 4] of 0 ng/mL and a concentration at 0.33 h [1, 3] of 1.27 ng/mL. The concentration at 0.33 h [1, 4] was 0.738 ng/mL, the concentration at 0.67 h [1, 3] was 2.9 ng/mL and the concentration at 0.67 h [1, 4] was 2.41 ng/mL. The concentration at 1 h [1, 3] was 2.76 ng/mL, the concentration at 1 h [1, 4] was 2.6 ng/mL and the concentration at 2 h [1, 3] was 1.4 ng/mL. For the same compound, the concentration at 2 h [1, 4] was 1.18 ng/mL, the concentration at 3 h [1, 3] was 0.721 ng/mL and the concentration at 3 h [1, 4] was 0.689 ng/mL. It also gave a concentration at 4 h [1, 3] of 0.432 ng/mL, a concentration at 4 h [1, 4] of 0.379 ng/mL and a concentration at 5 h [1, 3] of 0.287 ng/mL. The concentration at 5 h [1, 4] was 0.264 ng/mL, the concentration at 24 h [1, 3] was 0.00555 ng/mL and the concentration at 24 h [1, 4] was 0 ng/mL. The AUC(0-t) ([1]; 10 mg THC + 50 mg ANEB-001, read-out: THC plasma AUClast, Geometric Mean) was 5.65 ng·h/mL, the AUC(0-t) ([1]; 10 mg THC + 50 mg ANEB-001, read-out: THC plasma AUClast, Mean) was 5.98 ng·h/mL and the AUC(0-t) ([1]; 10 mg THC + 50 mg ANEB-001, read-out: THC plasma AUClast, Median) was 5.51 ng·h/mL. The Cmax ([1]; 10 mg THC + 50 mg ANEB-001, read-out: THC plasma Cmax, Geometric Mean) was 3.14 ng/mL, the Cmax ([1]; 10 mg THC + 50 mg ANEB-001, read-out: THC plasma Cmax, Mean) was 3.4 ng/mL and the Cmax ([1]; 10 mg THC + 50 mg ANEB-001, read-out: THC plasma Cmax, Median) was 3.12 ng/mL. The Tmax ([1]; 10 mg THC + 50 mg ANEB-001) was 1 h, the concentration at 0 h [1, 5] was 0 ng/mL and the concentration at 0 h [1, 6] was 0 ng/mL. The concentration at 0.33 h [1, 5] was 1.72 ng/mL, the concentration at 0.33 h [1, 6] was 0.986 ng/mL and the concentration at 0.67 h [1, 5] was 3.54 ng/mL. The concentration at 0.67 h [1, 6] was 2.41 ng/mL, the concentration at 1 h [1, 5] was 2.7 ng/mL and the concentration at 1 h [1, 6] was 1.88 ng/mL. For the same compound, the concentration at 2 h [1, 5] was 1.28 ng/mL, the concentration at 2 h [1, 6] was 1.05 ng/mL and the concentration at 3 h [1, 5] was 0.718 ng/mL. It also gave a concentration at 3 h [1, 6] of 0.639 ng/mL, a concentration at 4 h [1, 5] of 0.446 ng/mL and a concentration at 4 h [1, 6] of 0.35 ng/mL. It also gave a concentration at 5 h [1, 5] of 0.314 ng/mL, a concentration at 5 h [1, 6] of 0.228 ng/mL and a concentration at 24 h [1, 5] of 0.006 ng/mL. The concentration at 24 h [1, 6] was 0 ng/mL, the AUC(0-t) ([1]; 10 mg THC + 100 mg ANEB-001, read-out: THC plasma AUClast, Geometric Mean) was 5.3 ng·h/mL and the AUC(0-t) ([1]; 10 mg THC + 100 mg ANEB-001, read-out: THC plasma AUClast, Median) was 4.94 ng·h/mL. For the same compound, the Cmax ([1]; 10 mg THC + 100 mg ANEB-001, read-out: THC plasma Cmax, Geometric Mean) was 3.08 ng/mL, the Cmax ([1]; 10 mg THC + 100 mg ANEB-001, read-out: THC plasma Cmax, Mean) was 3.77 ng/mL and the Cmax ([1]; 10 mg THC + 100 mg ANEB-001, read-out: THC plasma Cmax, Median) was 2.46 ng/mL. It also gave a Tmax ([1]; 10 mg THC + 100 mg ANEB-001) of 0.67 h, a concentration at 0 h [1, 7] of 0 ng/mL and a concentration at 0 h [1, 8] of 0 ng/mL. For the same compound, the concentration at 0.33 h [1, 7] was 1.17 ng/mL, the concentration at 0.33 h [1, 8] was 0.776 ng/mL and the concentration at 0.67 h [1, 7] was 2.29 ng/mL. The concentration at 0.67 h [1, 8] was 1.81 ng/mL, the concentration at 1 h [1, 7] was 2.49 ng/mL and the concentration at 1 h [1, 8] was 2.27 ng/mL. It also gave a concentration at 2 h [1, 7] of 1.44 ng/mL, a concentration at 2 h [1, 8] of 1.6 ng/mL and a concentration at 3 h [1, 7] of 1.01 ng/mL. The concentration at 3 h [1, 8] was 0.838 ng/mL, the concentration at 4 h [1, 7] was 0.455 ng/mL and the concentration at 4 h [1, 8] was 0.443 ng/mL. For the same compound, the concentration at 5 h [1, 7] was 0.285 ng/mL, the concentration at 5 h [1, 8] was 0.248 ng/mL and the concentration at 24 h [1, 7] was 0 ng/mL. It also gave a concentration at 24 h [1, 8] of 0 ng/mL, an AUC(0-t) ([1]; 10 mg THC + Placebo, read-out: THC plasma AUClast, Geometric Mean) of 5.16 ng·h/mL and an AUC(0-t) ([1]; 10 mg THC + Placebo, read-out: THC plasma AUClast, Median) of 4.96 ng·h/mL. The Cmax ([1]; 10 mg THC + Placebo, read-out: THC plasma Cmax, Geometric Mean) was 2.76 ng/mL, the Cmax ([1]; 10 mg THC + Placebo, read-out: THC plasma Cmax, Mean) was 3.15 ng/mL and the Tmax ([1]; 10 mg THC + Placebo) was 1 h. The “Proportion of subjects reporting feeling high” value [2] was 75%.
